From patent US11186578B2, “Substituted pyrrolo[3,2-d]pyrimidines and pyrazolo[4,3-d]pyrimidines as tyrosine kinase inhibitors” (Shenzhen TargetRx, Inc., priority 2016, dated 2021)

Tests used:
RAMOS = RAMOS IC50; type: cell-based; settings: Homo sapiens
BTK = BTK (Homo sapiens (Human), UniProt Q06187); experiment: Kinase inhibition test (HTRF); type: biochemical; settings: 1 nM BTK, 20 μM ATP
Protocol: (1) Kinase Inhibition Test
1) Compound dilution: The test compounds were dissolved in DMSO to make a 10 mM stock solution. […] 2) Kinase assay: in a 10 μL reaction system (containing buffer 50 mM Hepes (pH 7.5), 5 mM MgCl2, 0.01 mM Na3VO4, 1% BSA) in a 384-well plate, 1 nM BTK, 1 μM biotin-TK peptide (from HTRF-TK kit) and 20 μM ATP were incubated at 23° C. for 90 minutes.

[1] = Metabolic stability in human liver microsomes; type: in vitro ADME; settings: pH 7.4, 1 μM compound, 0.5 mg/mL protein
Protocol: (§1) (2) Metabolic Stability Evaluation Experiments in Microsome:
(§2) 2) Preparation of phosphate buffer (100 mM, pH 7.4): 150 mL of pre-formulated 0.5 M potassium dihydrogen phosphate was taken and mixed with 700 mL of 0.5 M dipotassium hydrogen phosphate solution, and the pH of the mixture was adjusted to 7.4 with 0.5 M dipotassium hydrogen phosphate solution. Before use it was diluted by 5 times with ultrapure water, and magnesium chloride was added to obtain the phosphate buffer (100 mM), which contains 100 mM potassium phosphate, 3.3 mM magnesium chloride, and a pH of 7.4. […] 4) Preparation of stop solution: The stop solution was an acetonitrile solution containing 50 ng/mL propranolol hydrochloride and 200 ng/mL tolbutamide (internal standard). […] 6) Incubation of the sample: The stock solutions of the corresponding compounds were diluted to 0.25 mM with an aqueous solution containing 70% acetonitrile, which is used as a working solution and is ready for use. 398 μL of human liver microsomes dilution or rat liver microsome dilution was added to 96-well incubation plates (N=2), and 2 μL of 0.25 mM working solutions were added respectively, and evenly mixed. 7) Determination of metabolic stability: 300 μL of pre-cooled stop solution was added to each well of a 96-well deep well plate, which was placed on ice as a stop plate. The 96-well incubation plate and the NADPH regeneration system were placed in a 37° C. water bath, shaken at 100 rpm, and pre-incubated for 5 min. 80 μL of the incubation solution was taken from each well of the incubation plate, added to the stop plate, evenly mixed, and 20 μL of the NADPH regeneration system solution was added as 0 minute sample. Then, 80 μL of the NADPH regeneration system solution was added to each well of the incubation plate to start the reaction and start timing. […] 100 μL of the reaction solutions were taken at 10, 30, and 90 min, respectively, added to the stop place, and the reaction was terminated by vortexing for 3 min. The plate was centrifuged at 5000×g for 10 min at 4° C. 100 μL of the supernatant was taken and added into a 96-well plate to which 100 μL of distilled water was previously added, evenly mixed, and samples were analyzed by LC-MS/MS. 8) Data analysis: The peak area of the corresponding compounds and the internal standard was detected by LC-MS/MS system, and the ratio of the peak area of the compounds to the internal standard was calculated.

[2] = Metabolic stability in rat liver microsomes; type: in vitro ADME, SD rat; settings: Sprague-Dawley, pH 7.4, 1 μM compound, 0.5 mg/mL protein
Protocol: as §1, §2

in vivo = settings: male, Sprague-Dawley, rat
[3] = male, Sprague-Dawley, rat, in vivo
[4] = Pharmacokinetic experiments in rats; settings: male, Sprague-Dawley, rat, in vivo

BTK, sequence (Q06187 whole entry): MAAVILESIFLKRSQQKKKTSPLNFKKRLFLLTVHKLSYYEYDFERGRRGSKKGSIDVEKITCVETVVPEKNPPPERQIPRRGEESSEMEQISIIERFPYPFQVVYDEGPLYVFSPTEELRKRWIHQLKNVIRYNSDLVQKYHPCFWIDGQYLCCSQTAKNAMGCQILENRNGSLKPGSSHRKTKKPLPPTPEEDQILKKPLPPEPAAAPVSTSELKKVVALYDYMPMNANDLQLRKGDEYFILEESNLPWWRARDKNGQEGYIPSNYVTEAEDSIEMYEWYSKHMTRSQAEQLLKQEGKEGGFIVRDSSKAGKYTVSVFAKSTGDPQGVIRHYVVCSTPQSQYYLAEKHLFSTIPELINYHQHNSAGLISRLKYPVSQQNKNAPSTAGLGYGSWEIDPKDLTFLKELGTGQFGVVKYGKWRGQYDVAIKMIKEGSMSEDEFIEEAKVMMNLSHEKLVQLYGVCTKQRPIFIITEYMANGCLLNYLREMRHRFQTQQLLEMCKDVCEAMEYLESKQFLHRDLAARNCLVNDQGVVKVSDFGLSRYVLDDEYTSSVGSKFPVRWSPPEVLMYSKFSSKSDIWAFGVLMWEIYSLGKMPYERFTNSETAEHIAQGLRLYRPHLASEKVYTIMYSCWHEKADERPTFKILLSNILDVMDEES

With `C=CC(=O)N1CCC[C@@H](c2cn(-c3ccc(Oc4ccccc4)cc3)c3c(N)ncnc23)C1` [Example 3, (S)-1-(3-(4-amino-5-(4-phenoxyphenyl)-5H-pyrrolo[3,2-d]pyrimidin-7-yl)piperidin-1-yl)prop-2-en-1-one] as the molecule, how does the IC50 (RAMOS) read?
Its IC50 is under 100 nM.

And the IC50 (BTK)?
The IC50 was under 1 nM.

And the half-life at 1 μM [1]?
The half-life at 1 μM was 1.3 min.

And the microsomal CLint at 1 μM [1]?
The microsomal CLint at 1 μM was 1100 µL/min/mg.

Which half-life at 1 μM [2] does the source give for `C=CC(=O)N1CCC[C@H](c2cn(-c3ccc(Oc4ccccc4)cc3)c3c(N)ncnc23)C1` [Example 4, (R)-1-(3-(4-amino-5-(4-phenoxyphenyl)-5H-pyrrolo[3,2-d]pyrimidin-7-yl)piperidin-1-yl)prop-2-en-1-one] here?
Its half-life at 1 μM is 2.9 min.

What about the microsomal CLint at 1 μM [2] of the same molecule?
Its microsomal CLint at 1 μM is 483 µL/min/mg.

What about the IC50 (RAMOS) of the same molecule?
The IC50 was under 100 nM.

What about the IC50 (BTK) of the same molecule?
Its IC50 is under 1 nM.

And the half-life at 1 μM [1]?
Its half-life at 1 μM is 3.5 min.

What about the microsomal CLint at 1 μM [1] of the same molecule?
Its microsomal CLint at 1 μM is 399 µL/min/mg.

Which IC50 (RAMOS) does the source give for `C=CC(=O)N1CCC[C@@H](c2nn(-c3ccc(Oc4ccccc4)cc3)c3c(N)ncnc23)C1` [Example 5, (R)-1-(3-(7-amino-1-(4-phenoxyphenyl)-1H-pyrazolo[4,3-d]pyrimidin-3-yl)piperidin-1-yl)prop-2-en-1-one] here?
The IC50 was under 100 nM.

What about the IC50 (BTK) of the same molecule?
The IC50 was under 1 nM.

What about the half-life at 1 μM [1] of the same molecule?
The half-life at 1 μM was 1.5 min.

What about the microsomal CLint at 1 μM [1] of the same molecule?
The microsomal CLint at 1 μM was 922 µL/min/mg.

With `C=CC(=O)N1CCC[C@H](c2nn(-c3ccc(Oc4ccccc4)cc3)c3c(N)ncnc23)C1` [Example 6, (S)-1-(3-(7-amino-1-(4-phenoxyphenyl)-1H-pyrazolo[4,3-d]pyrimidin-3-yl)piperidin-1-yl)prop-2-en-1-one] as the molecule, how does the half-life at 1 μM [2] read?
Its half-life at 1 μM is 4.1 min.

And the microsomal CLint at 1 μM [2]?
Its microsomal CLint at 1 μM is 338 µL/min/mg.

What about the IC50 (RAMOS) of the same molecule?
Its IC50 is under 100 nM.

What about the IC50 (BTK) of the same molecule?
The IC50 was under 1 nM.

And the half-life at 1 μM [1]?
The half-life at 1 μM was 12.5 min.

And the microsomal CLint at 1 μM [1]?
Its microsomal CLint at 1 μM is 111 µL/min/mg.

For `C=CC(=O)N1CCC[C@@H](c2nc(-c3ccc(Oc4ccccc4)cc3)c3c(N)nccn23)C1` [Example 7, (R)-1-(3-(8-amino-1-(4-phenoxyphenyl)imidazo[1,5-a]pyrazin-3-yl)piperidin-1-yl)prop-2-en-1-one], which AUC(0-t) (in vivo; iv, 0.5 mg/kg) is on record?
The AUC(0-t) was 401 ng·h/mL.

What about the Cmax (in vivo; iv, 0.5 mg/kg) of the same molecule?
The Cmax was 966 ng/mL.

What about the Tmax (in vivo; iv, 0.5 mg/kg) of the same molecule?
The Tmax was 4.8 min.

What about the AUC(0-t) (in vivo; po, 10 mg/kg) of the same molecule?
Its AUC(0-t) is 931 ng·h/mL.

What about the Cmax (in vivo; po, 10 mg/kg) of the same molecule?
Its Cmax is 365 ng/mL.

And the Tmax (in vivo; po, 10 mg/kg)?
The Tmax was 40.2 min.

What about the half-life at 1 μM [2] of the same molecule?
The half-life at 1 μM was 2.4 min.

What about the microsomal CLint at 1 μM [2] of the same molecule?
Its microsomal CLint at 1 μM is 576 µL/min/mg.

What about the IC50 (RAMOS) of the same molecule?
The IC50 was under 100 nM.

And the IC50 (BTK)?
Its IC50 is under 1 nM.

And the half-life at 1 μM [1]?
Its half-life at 1 μM is 5.7 min.

And the microsomal CLint at 1 μM [1]?
Its microsomal CLint at 1 μM is 243 µL/min/mg.

What about the F [3] of the same molecule?
The F was 23.20%.

With `C=CC(=O)N1CCC[C@@H](n2nc(-c3ccc(Oc4ccccc4)cc3)c3c(N)ncnc32)C1` [Ibrutinib] as the molecule, how does the AUC(0-t) ([4]; iv, 0.5 mg/kg) read?
Its AUC(0-t) is 437 ng·h/mL.

And the Cmax ([4]; iv, 0.5 mg/kg)?
Its Cmax is 1230 ng/mL.

What about the Tmax ([4]; iv, 0.5 mg/kg) of the same molecule?
The Tmax was 4.8 min.

And the AUC(0-t) ([4]; po, 10 mg/kg)?
Its AUC(0-t) is 727 ng·h/mL.

And the Cmax ([4]; po, 10 mg/kg)?
The Cmax was 250 ng/mL.

What about the Tmax ([4]; po, 10 mg/kg) of the same molecule?
Its Tmax is 30 min.

What about the IC50 (RAMOS) of the same molecule?
The IC50 was under 100 nM.
